Like-named read-outs stand apart in the source and are kept apart here.
How the values were obtained:
[1] = test system: mongrel dogs; conditions: dog, in vivo
Experimental: (§1) An investigation was conducted to determine the effect of racemic ondansetron and the R(+)- and S(−)-enanatiomers of ondansetron in causing cardiac arrhythmias (cardiotoxicity) resulting from a lengthening of the cardiac action potential.
(§2) The order of administration was randomized to ensure that each dog received only one treatment.

[2] = test system: mongrel dogs; assay: Electrophysiological (EKG) effects of ondansetron enantiomers and racemate in dogs, rising cumulative doses; conditions: for Death or survival of dogs during or shortly after the experiment: four dogs per treatment, 0-4.0 mg/kg cumulative
Experimental: as §1, §2

| Structure (SMILES) | Prolongation of QTc interval, compared among treatments [1] | QTc Interval ([1]; 4 mg/kg) [s] | Prolongation of QTc interval, compared among treatments ([2]; dogs, comparison in words of the three treatments) | Death or survival of dogs during or shortly after the experiment [2] | Cardiotoxicity, compared among treatments ([2]; conclusion from QTc and mortality data in dogs) |
| --- | --- | --- | --- | --- | --- |
| Cc1nccn1C[C@@H]1CCc2c(c3ccccc3n2C)C1=O [S(−)-Ondansetron, S(−) ondansetron] | most prolonged | 0.44 ± 0.03 |  |  |  |
| Cc1nccn1CC1CCc2c(c3ccccc3n2C)C1=O (racemic) [R,S-Ondansetron, ondansetron] |  |  | most prolonged | survived |  |
| Cc1nccn1C[C@H]1CCc2c(c3ccccc3n2C)C1=O [R(+)-Ondansetron, R(+) ondansetron] | shortest |  |  | survived | less cardiotoxicity than either S(−) ondansetron or racemic ondansetron |

Reference: US6548082B1, “Methods for treating apnea and apnea disorders using optically pure R(+) ondansetron” (Sepracor Inc., priority 1999, dated 2003)
